{"source": "patent US12376614B2", "about": "“Method for producing hop processed product” (SUNTORY HOLDINGS LIMITED, priority 2016, dated 2025)", "key": {"3T3-L1 cells": {"tested_on": "3T3-L1 cells", "test": "Anti-adipocyte differentiation in 3T3-L1 cells (Oil Red O, WST-8 viability)", "type": "cell-based", "details": "positive control, commercially available reagent, 50 μM", "experimental": "[formula] formula (1) <Anti-Adipocyte Differentiation> [Reagents] • Dulbecco's modified eagle medium (DMEM): 10% FBS (fetal bovine sera) and 1% penicillin/streptomycin were added thereto. • TrypLE™ Select (1×) • IBMX: prepared to have a concentration of 0.5 mM with DMSO. • DEX: prepared to have a concentration of 1 μM with DMSO. • insulin solution human • WST-8: upon use, diluted with the DMEM medium to give a 2% WST-8. • Oil Red O: prepared to have a concentration of 5 mg/mL with isoPrOH, and upon use, diluted with pure water to give a 60% Oil Red O. [Method] • Day 1: 3T3-L1 Cells were previously cultured in a 10 cm dish to a state of 70 to 80% confluent. […] One-hundred microliters of the medium was transferred to a fresh 96-well plate, and the absorbance at 450 nm was measured with a microplate reader. Using those cells, a cell viability (%) was calculated as a relative value to the control. […] The 96-well plate was dried, 50 μL of 100% isoPrOH was added thereto, a mixture was allowed to stand at room temperature for 10 minutes, and the absorbance at 520 nm was then measured. Using those cells, an adipocyte differentiation (%) was calculated as a relative value to the control."}, "[1]": {"test": "Antioxidant activity (DPPH radical scavenging rate)", "type": "biochemical", "details": "positive control, commercially available reagent, 12.5 μM", "protocol": "Each sample dissolved in DMSO was dissolved in a 50 v/v % EtOH, so as to prepare a sample solution having a concentration of 25, 50, and 100 μg/mL, and dispensed in each well of a 96-well plate in an amount of 100 μL each. Thereto was added 100 μL each of a DPPH solution dissolved in EtOH so as to have a concentration of 0.1 mM, and the mixture was stirred with vortex (final concentration: 12.5, 25, or 50 μg/mL). Next, the plate was made light-resistant with an aluminum foil, and allowed to stand at room temperature (25° C.) for 30 minutes, and the absorbance at 517 nm was then measured (n=3). Using the absorbance obtained, the DPPH radical scavenging rate (%) was calculated according to the following formula (1). Here, as for the blank, the absorbance was measured in the same manner as the sample solutions except that a 50 v/v % EtOH containing 0.2% DMSO was used.\nThe 3T3-L1 cells were detached with TrypLE™ Select, and diluted with a DMEM medium to a concentration of 1.0×10^5 cells/mL, 100 μL each of a cell suspension was then dispensed into a 96-well plate, and the cells were cultured at 37° C. under 5% CO2. • Day 3: Each sample was prepared using a differentiation and induction medium (0.1% IBMX, 0.01% DEX). […] One-hundred microliters of the medium was transferred to a fresh 96-well plate, and the absorbance at 450 nm was measured with a microplate reader. […]"}}, "data": [{"smiles": "O=c1c(O)c(-c2ccc(O)c(O)c2)oc2cc(O)cc(O)c12", "note": "[Quercetin]", "values": [{"measurement": "anti-adipocyte differentiation", "setting": "3T3-L1 cells", "result": 50, "unit": "%"}]}, {"smiles": "O=C1O[C@H]([C@@H](O)CO)C(O)=C1O", "note": "[Vitamin C]", "values": [{"measurement": "antioxidant activity", "setting": "[1]", "result": 70, "unit": "%"}]}]}
